Data set [1] has as its system SW1990. Kind of data set: Induction of apoptosis in human SW1990 cells assessed as late apoptotic cells at 4 uM measured after 4 days by Annexin V-FITC and propidium iodide staining based flow cytometry (reference value: 7.23%). The conditions noted are these: time 4 day. Type of data set: functional. (In general: In flow cytometry, cells or beads pass a laser one at a time.)

Data set [2] relates to SW1990. Kind of data set: Effect on FOXM1 gene expression in human SW1990 cells at 4 uM by Q-PCR analysis. It is filed as functional, cell-based.
The test system of data set [3] is SW1990. The data set can be described thus: Induction of cell cycle arrest in human SW1990 cells assessed as accumulation of cells at G0/G1 phase at 4 uM incubated for 4 days by propidium iodide staining based flow cytometry (reference value: 64.79%). Type of data set: functional. The note with it: time 4 day.
Data set [4] concerns SW1990. Kind of data set: Effect on CDK6 gene expression in human SW1990 cells at 4 uM by Q-PCR analysis. It is filed as functional, cell-based.
Data set [5] in a line: Toxicity in nude mouse xenografted with human SW1990 cells assessed as kidney damage at 15 mg/kg, ip administered for 28 days by H and E staining based fluorescence microscopic analysis. The note with it: in vivo, 672 h, time 28 day. It is filed as organism-based. In general terms: Xenograft models place foreign cells or tissue in a host animal.
Data set [6] deals with SW1990. The data set can be described thus: Effect on BRCA1 gene expression in human SW1990 cells at 4 uM by Q-PCR analysis. It is filed as functional, cell-based.
Data set [7] relates to SW1990. Kind of data set: Effect on CCNB1 gene expression in human SW1990 cells at 4 uM by Q-PCR analysis. Type of data set: functional, cell-based.
For data set [8], the system named is SW1990. Kind of data set: Effect on c-Myc gene expression in human SW1990 cells at 4 uM by Q-PCR analysis. It is filed as functional, cell-based.
Data set [9] concerns SW1990. Kind of data set: Inhibition of CDK1 protein expression in human SW1990 cells at 1 to 2 uM measured after 4 days by Western blot analysis. Type of data set: functional, cell-based. The conditions noted are these: dose 1-2 µM, time 4.0 day.
In data set [10] the test system is SW1990. Kind of data set: Effect on HEXIM1 gene expression in human SW1990 cells at 1 to 2 uM by Q-PCR analysis. It is filed as functional, cell-based. The note with it: dose 1-2 µM.
In data set [11] the test system is SW1990. Kind of data set: Induction of DNA damage in human SW1990 cells assessed as increase in tail DNA at 1 to 2 uM incubated for 4 days by comet assay. It is filed as functional, cell-based. The conditions noted are these: dose 1-2 µM, time 4.0 day.
The test system of data set [12] is SW1990. Kind of data set: Induction of apoptosis in human SW1990 cells assessed as late apoptotic cells at 2 uM measured after 4 days by Annexin V-FITC and propidium iodide staining based flow cytometry (reference value: 7.23%). The conditions noted are these: time 4 day. Type of data set: functional.
Data set [13] concerns SW1990. Kind of data set: Effect on CCND1 gene expression in human SW1990 cells at 1 to 2 uM by Q-PCR analysis. Type of data set: functional, cell-based. The conditions noted are these: dose 1-2 µM.
Data set [14] relates to Mus musculus. The data set can be described thus: Inhibition of CCND1 expression in nude mouse xenografted with human SW1990 cells at 30 mg/kg, ip measured after 4 days by Western blot analysis. The conditions noted are these: time 4.0 day. Type of data set: functional, organism-based.
In data set [15] the test system is SW1990. The data set can be described thus: Inhibition of homologous recombinant repair in human SW1990 cells assessed as reversal of Olaparib-induced c-Myc expression at 1 to 2 uM after 4 days by Western blot analysis. It is filed as functional, cell-based. The conditions noted are these: dose 1-2 µM, time 4.0 day. A general note: Immunoblotting shows a protein as a band on a membrane.

Data set [16] concerns SW1990. Kind of data set: Inhibition of CCNB1 protein expression in human SW1990 cells at 1 to 2 uM measured after 4 days by Western blot analysis. Type of data set: functional, cell-based. The note with it: dose 1-2 µM, time 4.0 day.
In data set [17] the test system is Mus musculus. Kind of data set: Inhibition of BRD4 expression in nude mouse xenografted with human SW1900 cells at 30 mg/kg, ip administered for 28 days by Q-PCR analysis. It is filed as functional, organism-based. The note with it: time 28.0 day.
The subject of data set [18] is SW1990. Kind of data set: Inhibition of colony formation in human SW1990 cells at 1 uM after 14 days by crystal violet staining based microscopic analysis. Type of data set: functional, cell-based. The note with it: time 14.0 day.
Data set [19] has as its system SW1990. Kind of data set: Downregulation of BRD4 expression in human SW1990 cells at 2 uM measured after 4 days by Western blot analysis. It is filed as functional, cell-based. The note with it: time 4.0 day.
The test system of data set [20] is Mus musculus. Kind of data set: Inhibition of homologous recombinant repair in nude mouse xenografted with human SW1990 cells assessed as reversal of olaparib-induced MDC1 expression at 30 mg/kg, ip measured after 4 days by Western blot analysis. Type of data set: functional, organism-based. The note with it: time 4.0 day.
Data set [21] has as its system SW1990. The data set can be described thus: Induction of apoptosis in human SW1990 cells assessed as late apoptotic cells at 6 uM measured after 4 days by Annexin V-FITC and propidium iodide staining based flow cytometry (reference value: 7.23%). Type of data set: functional. The conditions noted are these: time 4 day.
Data set [22] relates to Mus musculus. The data set can be described thus: Upregulation of E2F2 expression in nude mouse xenografted with human SW1990 cells at 45 mg/kg, ip measured after 4 days by Western blot analysis. Type of data set: functional, organism-based. The note with it: time 4.0 day.
Data set [23] relates to SW1990. Kind of data set: Induction of apoptosis in human SW1990 cells assessed as early apoptotic cells at 6 uM measured after 4 days by Annexin V-FITC and propidium iodide staining based flow cytometry (reference value: 1.62%). The conditions noted are these: time 4 day. Type of data set: functional.
Data set [24] has as its system Mus musculus. Kind of data set: Upregulation of E2F2 expression in nude mouse xenografted with human SW1990 cells at 45 mg/kg, ip measured after 4 days by Q-PCR analysis. It is filed as functional, organism-based. The note with it: time 4.0 day.
Data set [25] relates to Mus musculus. The data set can be described thus: Upregulation of CCNB1 expression in nude mouse xenografted with human SW1990 cells at 45 mg/kg, ip measured after 4 days by Western blot analysis. It is filed as functional, organism-based. The note with it: time 4.0 day.
Data set [26] deals with SW1990. Kind of data set: Upregulation of BRCA1 expression in human SW1990 cells at 6 uM measured after 4 days by Western blot analysis. Type of data set: functional, cell-based. The conditions noted are these: time 4.0 day.
For data set [27], the system named is SW1990. Kind of data set: Effect on E2F2 gene expression in human SW1990 cells at 6 uM by Q-PCR analysis. Type of data set: functional, cell-based.
Data set [28] concerns Mus musculus. The data set can be described thus: Upregulation of CDC25B expression in nude mouse xenografted with human SW1990 cells at 45 mg/kg, ip measured after 4 days by Western blot analysis. Type of data set: functional, organism-based. The conditions noted are these: time 4.0 day.
Data set [29] has as its system SW1990. Kind of data set: Upregulation of FOXM1 expression in human SW1990 cells at 6 uM measured after 4 days by Western blot analysis. The note with it: time 4.0 day. It is filed as functional, cell-based.
For data set [30], the system named is Mus musculus. Kind of data set: Upregulation of CCND1 expression in nude mouse xenografted with human SW1990 cells at 45 mg/kg, ip measured after 4 days by Q-PCR analysis. The note with it: time 4.0 day. Type of data set: functional, organism-based.

The source made the active and inactive calls. The rule behind the calls is not given here.

As for `Cc1sc2c(c1C)C(c1ccc(Cl)cc1)=N[C@@H](CC(=O)OC(C)(C)C)c1nnc(C)n1-2`, the Activity in data set [1] is listed as 24.9%; in [3], 75.06%; in [5], “Non-Toxic”. Moreover, the result in [2], in data set [4], in [6], in data set [7] and in data set [8] was Active.

`Cc1noc(C)c1-c1ccc2c(c1)C(c1ccccc1)N(Cc1nc3c(C(N)=O)cccc3[nH]1)C(=O)N2C` (stereo not given): the inhibition result in data set [9], in data set [14], in data set [15], in data set [16], in data set [17] and in [18] was “Active” each time. Besides, the inhibition result in [20] was “Active”. In addition, the outcome in [10], in data set [11], in [13] and in data set [19] was Active. Further, in [12], the Activity is 39.5%.

As for `O=C(c1cc(Cc2n[nH]c(=O)c3ccccc23)ccc1F)N1CCN(C(=O)C2CC2)CC1` [OLAPARIB], the results for the Activity in data set [21] and in data set [23] were 22.9% and 1.84%, respectively. Also, the outcome in [22], in data set [24], in [25], in data set [26], in data set [27] and in data set [28] was Active. In addition, the result in [29] and in data set [30] was Active.

Values taken from ChEMBL document CHEMBL5131471, “Design, synthesis and mechanism studies of novel dual PARP1/BRD4 inhibitors against pancreatic cancer” (Eur J Med Chem, 2022).
